In US9187464B2, “TRPV4 antagonists” (GlaxoSmithKline Intellectual Property (No. 2) Limited, priority 2011, dated 2015) one finds IC50 data, which are given here for 11 compounds.

Broadly, the IC50 is the concentration that gives 50% inhibition.

The experiment concerns the target T1, human TRPV4 (Homo sapiens, UniProt Q9HBA0).
T1 construct: expressed in transfected cells; host or cells: HEK-293-MSR-II cells transduced with 1% BacMam virus
The experiment can be described thus: Ligand-gated assay (Fluo4 calcium, FLIPR; inhibition of agonist-induced activation). In kind it is cell-based. The conditions noted are these: HEK-293-MSR-II cells transduced with BacMam human TRPV4; agonist at EC80. Here is the method: TRP channel activation/opening results in an influx of divalent and monovalent cations including calcium. The resulting changes in intracellular calcium were monitored using a calcium selective fluorescent dye Fluo4 (MDS Analytical Technologies). Dye loaded cells were initially exposed to test compound to verify a lack of agonist activity. Cells were subsequently activated by addition of an agonist and inhibition of the agonist-induced activation was recorded. Human embryonic kidney 293 cells stably expressing the macrophage scavenger receptor class II (HEK-293-MSR-II) and transduced with 1% BacMam (J. P. Condreay, S. M. Witherspoon, W. C. Clay and T. A. Kost, Proc Natl Acad Sci 96 (1999), pp. 127-132) virus expressing the human TRPV4 gene were plated at 15000 cells/well in a volume of 50 μL in a 384 well poly-D lysine coated plate. Cells were incubated for 24 hours at 37 degrees and 5% CO2. Media was then aspirated using a Tecan Plate-washer and replaced with 20 μL of dye loading buffer: HBSS, 500 uM Brilliant Black (MDS Analytical Technologies), 2 uM Fluo-4. Dye loaded plates were then incubated in the dark at room temperature for 1-1.5 hours. 10 μL of test compound diluted in HBSS (HBSS with 1.5 mM Calcium Chloride, 1.5 mM Magnesium Chloride and 10 mM HEPES. pH 7.4), +0.01% Chaps was added to the plate, incubated for 10 min at room temperature in the dark and then 10 μL of agonist was added at a final concentration equal to the agonist EC80. Calcium release was measured using the FLIPRtetra (MDS Analytical Technologies) or FLIPR384 (MDS Analytical Technologies).
IC50 between 0.1-10 nM (+++), >10-50 nM (++), >50-500 nM (+).

T1 sequence (Q9HBA0 whole entry): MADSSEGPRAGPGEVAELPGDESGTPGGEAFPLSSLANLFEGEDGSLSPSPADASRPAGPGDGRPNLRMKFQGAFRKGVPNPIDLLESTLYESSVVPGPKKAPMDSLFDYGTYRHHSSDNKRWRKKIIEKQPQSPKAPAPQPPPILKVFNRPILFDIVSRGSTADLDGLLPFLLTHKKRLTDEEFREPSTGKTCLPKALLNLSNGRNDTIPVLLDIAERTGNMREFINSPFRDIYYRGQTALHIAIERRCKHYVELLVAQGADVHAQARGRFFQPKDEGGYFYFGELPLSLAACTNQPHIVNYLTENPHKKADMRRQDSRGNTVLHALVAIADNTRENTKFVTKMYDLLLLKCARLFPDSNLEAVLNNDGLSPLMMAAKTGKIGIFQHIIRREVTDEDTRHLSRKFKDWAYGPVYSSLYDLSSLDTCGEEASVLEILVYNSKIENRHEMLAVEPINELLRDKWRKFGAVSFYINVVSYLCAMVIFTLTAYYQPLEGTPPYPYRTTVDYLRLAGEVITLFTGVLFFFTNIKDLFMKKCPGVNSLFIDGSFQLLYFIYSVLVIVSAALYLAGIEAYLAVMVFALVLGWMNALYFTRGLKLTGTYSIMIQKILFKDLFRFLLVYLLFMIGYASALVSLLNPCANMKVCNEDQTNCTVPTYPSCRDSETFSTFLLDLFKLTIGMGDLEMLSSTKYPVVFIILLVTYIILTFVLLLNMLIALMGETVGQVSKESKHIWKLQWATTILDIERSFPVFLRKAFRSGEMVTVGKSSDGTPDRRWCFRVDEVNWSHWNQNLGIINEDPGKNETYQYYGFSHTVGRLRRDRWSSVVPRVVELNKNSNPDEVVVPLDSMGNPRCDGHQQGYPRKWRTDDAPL

For the compound `CC(C)Cc1cc(N2C[C@@]3(CCC[C@](C)(Cn4cnc5ccc(C#N)cc54)C3)OC2=O)on1` [Example 31, 1-({(5S,7S)-7-methyl-3-[3-(2-methylpropyl)-5-isoxazolyl]-2-oxo-1-oxa-3-azaspiro[4.5]dec-7-yl}methyl)-1H-benzimidazole-6-carbonitrile], the IC50 was in the range of 0.1 to 10 nM. In the case of `CCc1cc(N2C[C@@]3(CCC[C@](C)(Cn4cnc5ccc(C#N)cc54)C3)OC2=O)on1` [Example 33, 1-{[(5S,7S)-3-(3-ethyl-5-isoxazolyl)-7-methyl-2-oxo-1-oxa-3-azaspiro[4.5]dec-7-yl]methyl}-1H-benzimidazole-6-carbonitrile] it was 10 to 50 nM. In the case of `C[C@]1(Cn2cnc3ccc(C#N)cc32)CCC[C@@]2(CN(c3cc(C4CC4)no3)C(=O)O2)C1` [Example 34, 1-{[(5S,7S)-3-(3-cyclopropyl-5-isoxazolyl)-7-methyl-2-oxo-1-oxa-3-azaspiro[4.5]dec-7-yl]methyl}-1H-benzimidazole-6-carbonitrile] it was 0.1 to 10 nM.

`C[C@]1(Cn2cnc3ccc(C#N)cc32)CCC[C@@]2(CN(c3cc(-c4ccccc4)no3)C(=O)O2)C1` [Example 35, 1-{[(5S,7S)-7-methyl-2-oxo-3-(3-phenyl-5-isoxazolyl)-1-oxa-3-azaspiro[4.5]dec-7-yl]methyl}-1H-benzimidazole-6-carbonitrile]: the IC50 lay within 10 to 50 nM. The value for `Cn1nc(C(C)(C)C)cc1N1C[C@@]2(CCC[C@](C)(Cn3cnc4ccc(C#N)cc43)C2)OC1=O` [Example 36, 1-({(5S,7S)-3-[3-(1,1-dimethylethyl)-1-methyl-1H-pyrazol-5-yl]-7-methyl-2-oxo-1-oxa-3-azaspiro[4.5]dec-7-yl}methyl)-1H-benzimidazole-6-carbonitrile] was 50 to 500 nM; that for `C[C@]1(Cn2cnc3ccc(C#N)cc32)CCC[C@@]2(CN(c3cc(C(F)(F)F)no3)C(=O)O2)C1` [Example 37, 1-({(5S,7S)-7-methyl-2-oxo-3-[3-(trifluoromethyl)-5-isoxazolyl]-1-oxa-3-azaspiro[4.5]dec-7-yl}methyl)-1H-benzimidazole-6-carbonitrile] was 10 to 50 nM. Consider `C[C@]1(Cn2cnc3ccc(C#N)cc32)CCC[C@@]2(CN(c3cc(C4(C#N)CC4)no3)C(=O)O2)C1` [Example 38, 1-({(5S,7S)-3-[3-(1-cyanocyclopropyl)-5-isoxazolyl]-7-methyl-2-oxo-1-oxa-3-azaspiro[4.5]dec-7-yl}methyl)-1H-benzimidazole-6-carbonitrile], for which the IC50 is 10 to 50 nM. The value for `CC(C)(F)c1cc(N2C[C@@]3(CCC[C@](C)(Cn4cnc5ccc(C#N)cc54)C3)OC2=O)on1` [Example 39, 1-(((5S,7S)-3-(3-(2-fluoropropan-2-yl)isoxazol-5-yl)-7-methyl-2-oxo-1-oxa-3-azaspiro[4.5]decan-7-yl)methyl)-1H-benzo[d]imidazole-6-carbonitrile] was 0.1 to 10 nM; that for `C[C@]1(Cn2cnc3ccc(C#N)cc32)CCC[C@@]2(CN(c3cc(C4CCC4)no3)C(=O)O2)C1` [Example 40, 1-(((5S,7S)-3-(3-cyclobutylisoxazol-5-yl)-7-methyl-2-oxo-1-oxa-3-azaspiro[4.5]decan-7-yl)methyl)-1H-benzo[d]imidazole-6-carbonitrile] was 10 to 50 nM; that for `Cc1c(C(C)(C)C)noc1N1C[C@@]2(CCC[C@](C)(Cn3cnc4ccc(C#N)cc43)C2)OC1=O` [Example 41, 1-(((5S,7S)-3-(3-(tert-butyl)-4-methylisoxazol-5-yl)-7-methyl-2-oxo-1-oxa-3-azaspiro[4.5]decan-7-yl)methyl)-1H-benzo[d]imidazole-6-carbonitrile] was 0.1 to 10 nM. The value for `CC(C)(C)c1coc(N2C[C@@]3(CCC[C@](C)(Cn4cnc5ccc(C#N)cc54)C3)OC2=O)n1` [Example 42, 1-(((5S,7S)-3-(4-(tert-butyl)oxazol-2-yl)-7-methyl-2-oxo-1-oxa-3-azaspiro[4.5]decan-7-yl)methyl)-1H-benzo[d]imidazole-6-carbonitrile] was 10 to 50 nM.
